# Laboratory results published in patent US10940188B2, “Compounds and methods for treatment and prevention of Flavivirus infection” (priority 2016, dated 2021).
# Several values for one entry are separate records, joined by “and”; a condition that tells them apart may be missing. Equal values may be shown once. Read-outs that look alike come from different tables or passages of the source.
# Experiments:
# [1] = test system: ZIKV-induced caspase 3/7 activity in SNB-19 cells; assay: Caspase 3/7 activity assay, ZIKV-infected SNB-19 cells; assay type: cell-based; details: for Emax: read-out: Caspase 3 (efficacy, %) SNB-19
# How it was run: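 Human NPCs, SNB-19 cells or astrocytes seeded 16 h, compound added 30 min before ZIKV, then 6 h infection at 37 °C. Caspase-Glo 3/7 luminescence after 30 min at room temperature, normalized to uninfected cells (0%) and ZIKV-infected cells (100%).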
# [2] = test system: ZIKV-induced cell death in human astrocytes; assay: ATP cell viability assay for ZIKV-induced cell death, human astrocytes; assay type: cell-based
# [3] = test system: ZIKV-induced cell death in hNPCs; assay: ATP cell viability assay for ZIKV-induced cell death, hNPCs; assay type: cell-based, human; details: for IC50: Homo sapiens
# Description: (§1) The reagent was reconstituted and prepared as described by the manufacturer. In order to measure the cell death caused by ZIKV infection, cells were cultured for 16 hours at 37° C. with 5% CO2 in assay plates, followed by the addition of ZIKV solution and incubation at 37° C. with 5% CO2 for 72 hours. ATPlite, the ATP monitoring reagent, was then added to the assay plates and they were incubated for 15 minutes. The resulting luminescence was measured using the ViewLux plate reader (Perkin Elmer). Data were normalized using the wells without cells as a control for 100% cell killing, and cell-containing wells without ZIKV infection were used as full cell viability (0% cell killing).
# Human NPCs were seeded onto PDL coated 1536-well assay plates at 250 cells per 3 μl/well and incubated at 37° C. in 5% CO2 for 16 hours. Test compounds dissolved in DMSO were transferred to assay plates at a volume of 23 nl/well by an automated pintool workstation (Wako Automation, San Diego, Calif.). Compounds were incubated with cells for 30 minutes at 37° C. in 5% CO2, immediately followed by the addition of 2 μl/well of ZIKV. Incubation time of compound-treated cells with ZIKV varied based on assay format. Experiments measuring virus-induced caspase 3/7 activity required a 6 hour incubation of ZIKV in the presence compounds at 37° C. in 5% CO2. Following this incubation, 3.5 μl/well of caspase 3/7 reagent mixture was added to assay plates. The plates were incubated for 30 minutes at room temperature, and the resultant luminescence signal was measured using a ViewLux plate reader (Perkin Elmer). Experiments measuring virus-induced cell death required a 72-hour incubation of ZIKV in the presence of compounds at 37° C. in 5% CO2. Following this incubation, 3.5 μl/well of ATP content detection reagent was added to assay plates, incubated for 30 minutes at the room temperature, and the resultant luminescence signal was measured in a ViewLux plate reader.
# as §1, with “The ATPlite luminescence assay system assay kit (PerkinElmer) was used to determine cell viability. The reagent” for “The reagent”, “by the manufacture. In order” for “by the manufacturer. In order”, “followed by addition of” for “followed by the addition of”, “plates and incubated for” for “plates and they were incubated for”, “Elmer). Data was normalized using” for “Elmer). Data were normalized using”
# Human NPCs were seeded onto PDL coated 1536-well assay plates at 250 cells per 3 μl/well and incubated at 37° C. in 5% CO2 for 16 hours. Test compounds dissolved in DMSO were transferred to assay plates at a volume of 23 nl/well by an automated pintool workstation (Wako Automation, San Diego, Calif.). Compounds were incubated with cells for 30 minutes at 37° C. in 5% CO2, immediately followed by the addition of 2 μl/well of ZIKV. Incubation time of compound-treated cells with ZIKV varied based on assay format. Experiments measuring virus induced caspase 3/7 activity required a 6 hour incubation of ZIKV in the presence compounds at 37° C. in 5% CO2. Following this incubation, 3 μl/well of caspase 3/7 reagent mixture was added to assay plates, incubated for 30 minute at room temperature, and the resultant luminescence signal was measured using a ViewLux plate reader (Perkin Elmer). Experiments measuring the virus induced cell death required a 72 hour incubation of ZIKV in the presence of compounds at 37° C. in 5% CO2. Following this incubation, 3 μl/well of ATP content detection reagent was added to assay plates, incubated for 30 minute at room temperature, and the resultant luminescence signal was measured in a ViewLux plate reader.
# [4] = Homo sapiens, ZIKV-infected SNB-19 cells, read-out: Caspase 3 (IC50, uM) SNB-19
# [5] = Homo sapiens, ZIKV-infected SNB-19 cells
# [6] = ZIKV-infected SNB-19 cells, read-out: Caspase 3 (IC50, uM) SNB-19
# [7] = Astrocyte, ZIKV-infected human astrocytes, read-out: Cell viability (IC50, uM) Astrocyte
# [8] = Homo sapiens, Astrocyte, following ZIKV infection, read-out: IC50 (μM) for improving cell viability, Astrocytes
compound,measurement,setting,value
"Cc1cccc(C#Cc2ccccc2)n1 [MPEP, 2-Methyl-6-(phenylethynyl)pyridine]",IC50,[1]; [4],5.18 µM
same,Emax,[1]; [5],98.6%
same,"Cell viability (efficacy, %) Astrocyte",[2]; ZIKV-infected human astrocytes,0.0%
same,"Cell viability (efficacy, %) NPCs",[3]; ZIKV-infected hNPCs,0.0%
Vitamin B12,IC50,[1]; [6],11.6 µM and 13.4 µM
same,"Cell viability (efficacy, %) Astrocyte",[2]; ZIKV-infected human astrocytes,0.0%
same,"Cell viability (efficacy, %) NPCs",[3]; ZIKV-infected hNPCs,0.0%
CN(C)CCCSc1ccccc1NC(=O)/C=C/c1ccccc1 [Cinanserin],IC50,[1]; [4],12.3 µM
same,Emax,[1]; [5],92%
same,"Cell viability (efficacy, %) Astrocyte",[2]; ZIKV-infected human astrocytes,0.0%
same,"Cell viability (efficacy, %) NPCs",[3]; ZIKV-infected hNPCs,0.0%
Cc1cc(O)c2c(c1)C(=O)c1cc(O)cc(O)c1C2=O [Emodin],IC50,[1]; [4],4.35 µM
same,Emax,[1]; [5],83.3%
same,"Cell viability (efficacy, %) Astrocyte",[2]; ZIKV-infected human astrocytes,0.0%
same,"Cell viability (efficacy, %) NPCs",[3]; ZIKV-infected hNPCs,0.0%
Flurbiprofen axetil,"Caspase 3 (efficacy, %) SNB-19",[1]; ZIKV-infected SNB-19 cells,45.7%
same,IC50,[1]; [6],19.5 µM
same,"Cell viability (efficacy, %) Astrocyte",[2]; ZIKV-infected human astrocytes,0.0%
same,"Cell viability (efficacy, %) NPCs",[3]; ZIKV-infected hNPCs,0.0%
O=C(O)c1ccccc1Nc1cccc(C(F)(F)F)c1 [Flufenamic acid],IC50,[1]; [4],10.9 µM
same,Emax,[1]; [5],61.5%
same,"Cell viability (efficacy, %) Astrocyte",[2]; ZIKV-infected human astrocytes,0.0%
same,"Cell viability (efficacy, %) NPCs",[3]; ZIKV-infected hNPCs,0.0%
C[C@H](NC(=O)C(=O)Nc1ccccc1C(C)(C)C)C(=O)N[C@@H](CC(=O)O)C(=O)COc1c(F)c(F)cc(F)c1F [Emricasan],IC50,"[1]; Homo sapiens, SNB-19 cells, three ZIKV strains MR766, FSS13025, PRVABC59, read-out: IC50 in the caspase activity assay",0.13 to 0.9 µM
same,IC50,[1]; [4],0.62 µM
same,Emax,[1]; [5],97.6%
same,IC50,[2]; [7],4.11 µM
same,IC50,[2]; [8],4.11 µM
same,"Cell viability (efficacy, %) Astrocyte",[2]; ZIKV-infected human astrocytes,98.7%
same,IC50,"[3]; ZIKV-infected hNPCs, read-out: Cell viability (IC50, uM) NPCs",3.88 µM
same,IC50,"[3]; following ZIKV infection, read-out: IC50 (μM) for improving cell viability, hNPCs",3.88 µM
same,"Cell viability (efficacy, %) NPCs",[3]; ZIKV-infected hNPCs,54.4%
Cc1cccc(/C=C/c2ccccc2)n1 [SIB 1893],"Caspase 3 (efficacy, %) SNB-19",[1]; ZIKV-infected SNB-19 cells,105%
same,IC50,[1]; [6],15.5 µM
same,"Cell viability (efficacy, %) Astrocyte",[2]; ZIKV-infected human astrocytes,0.0%
same,"Cell viability (efficacy, %) NPCs",[3]; ZIKV-infected hNPCs,0.0%
O=C(O)CCC(=O)c1ccc(-c2ccccc2)cc1 [Fenbufen],IC50,[1]; [4],24.5 µM
same,Emax,[1]; [5],76.3%
same,"Cell viability (efficacy, %) Astrocyte",[2]; ZIKV-infected human astrocytes,0.0%
same,"Cell viability (efficacy, %) NPCs",[3]; ZIKV-infected hNPCs,0.0%
COc1ccc(-c2cc(=S)ss2)cc1 [Anethole trithione],IC50,[1]; [4],15.5 µM
same,Emax,[1]; [5],85.5%
same,"Cell viability (efficacy, %) Astrocyte",[2]; ZIKV-infected human astrocytes,0.0%
same,"Cell viability (efficacy, %) NPCs",[3]; ZIKV-infected hNPCs,0.0%
O=C(Oc1ccccc1)c1cccc(C(=O)Oc2ccccc2)c1 [Diphenyl isophthalate],IC50,[1]; [4],4.73 µM
same,Emax,[1]; [5],92.8%
same,"Cell viability (efficacy, %) Astrocyte",[2]; ZIKV-infected human astrocytes,0.0%
same,"Cell viability (efficacy, %) NPCs",[3]; ZIKV-infected hNPCs,0.0%
O=C(Nc1ccc(C(=O)O)c(O)c1)c1ccccc1 [Benzoylpas],IC50,[1]; [4],6.9 µM
same,Emax,[1]; [5],92.8%
same,"Cell viability (efficacy, %) Astrocyte",[2]; ZIKV-infected human astrocytes,0.0%
same,"Cell viability (efficacy, %) NPCs",[3]; ZIKV-infected hNPCs,0.0%
CC(C(=O)O)c1ccc(C(=O)c2cccs2)cc1 (stereo not shown) [Suprofen],IC50,[1]; [4],17.3 µM
same,Emax,[1]; [5],65.6%
same,"Cell viability (efficacy, %) Astrocyte",[2]; ZIKV-infected human astrocytes,0.0%
same,"Cell viability (efficacy, %) NPCs",[3]; ZIKV-infected hNPCs,0.0%
COc1cccc(-c2ccc(NC(=O)C3=C(C(=O)O)CCC3)c(F)c2)c1 [Vidofludimus],IC50,[1]; [4],3.66 µM
same,Emax,[1]; [5],101%
same,"Cell viability (efficacy, %) Astrocyte",[2]; ZIKV-infected human astrocytes,0.0%
same,"Cell viability (efficacy, %) NPCs",[3]; ZIKV-infected hNPCs,0.0%
CC(=O)Oc1cccc2c1C(=O)c1c(OC(C)=O)cc(C(=O)O)cc1C2=O [Diacerein],IC50,[1]; [4],17.3 µM
same,Emax,[1]; [5],63.2%
same,IC50,[2]; [7],30.8 µM
same,"Cell viability (efficacy, %) Astrocyte",[2]; ZIKV-infected human astrocytes,35.2%
same,"Cell viability (efficacy, %) NPCs",[3]; ZIKV-infected hNPCs,0.0%
O=C1NC(=O)C(=Cc2ccc(-c3ccc(F)cc3)o2)S1 [CAY10505],"Caspase 3 (efficacy, %) SNB-19",[1]; ZIKV-infected SNB-19 cells,91.2%
same,IC50,[1]; [6],17.3 µM
same,"Cell viability (efficacy, %) Astrocyte",[2]; ZIKV-infected human astrocytes,0.0%
same,"Cell viability (efficacy, %) NPCs",[3]; ZIKV-infected hNPCs,0.0%
O=C(Nc1ccc([N+](=O)[O-])cc1Cl)c1cc(Cl)ccc1O [Niclosamide],IC50,[1]; [4],2.06 µM
same,Emax,[1]; [5],93.9%
same,IC50,[2]; [7],1.73 µM
same,IC50,[2]; [8],1.73 µM
same,"Cell viability (efficacy, %) Astrocyte",[2]; ZIKV-infected human astrocytes,51.2%
N#CC1(c2ccc(NC(=O)c3cccnc3NCc3ccncc3)cc2)CCCC1 [Apatinib],IC50,[1]; [4],24.5 µM
same,Emax,[1]; [5],61.2%
same,"Cell viability (efficacy, %) Astrocyte",[2]; ZIKV-infected human astrocytes,0.0%
same,"Cell viability (efficacy, %) NPCs",[3]; ZIKV-infected hNPCs,0.0%
Cc1ccc(O)c(-n2nc3ccccc3n2)c1 [2-(2H-Benzotriazol-2-yl)-4-methylphenol],IC50,[1]; [4],8.69 µM
same,Emax,[1]; [5],80.1%
same,"Cell viability (efficacy, %) Astrocyte",[2]; ZIKV-infected human astrocytes,0.0%
same,"Cell viability (efficacy, %) NPCs",[3]; ZIKV-infected hNPCs,0.0%
CCOCCOC(=O)C=Cc1ccc(OC)cc1 [2-Ethoxylethyl-p-methoxycinnamate],IC50,[1]; [4],27.5 µM
same,Emax,[1]; [5],53%
same,"Cell viability (efficacy, %) Astrocyte",[2]; ZIKV-infected human astrocytes,0.0%
same,"Cell viability (efficacy, %) NPCs",[3]; ZIKV-infected hNPCs,0.0%
CC(=O)Nc1ccc([C@H](C)C(=O)Nc2ncc(C(C)C)s2)cc1 [PHA-690509],"Caspase 3 (efficacy, %) SNB-19",[1]; ZIKV-infected SNB-19 cells,74.6%
same,IC50,[1]; [6],9.2 µM
same,"Cell viability (efficacy, %) Astrocyte",[2]; ZIKV-infected human astrocytes,81.9%
same,IC50,"[2]; ZIKV-infected human astrocytes, read-out: Cell viability (IC50, uM) Astrocyte",7.74 µM
same,IC50,"[2]; following ZIKV infection, read-out: IC50 (μM) for improving cell viability, Astrocytes",7.47 µM
O=C(c1ccccc1)c1ccc2n1CCC2C(=O)O (stereo not shown) [Ketorolac tromethamine],IC50,[1]; [4],17.3 µM
same,Emax,[1]; [5],84.5%
same,"Cell viability (efficacy, %) Astrocyte",[2]; ZIKV-infected human astrocytes,0.0%
same,"Cell viability (efficacy, %) NPCs",[3]; ZIKV-infected hNPCs,0.0%
c1ccc(CCNc2nc(-c3ccccc3)cs2)cc1 [Fanetizole],IC50,[1]; [4],17.3 µM
same,Emax,[1]; [5],78.1%
same,"Cell viability (efficacy, %) Astrocyte",[2]; ZIKV-infected human astrocytes,0.0%
same,"Cell viability (efficacy, %) NPCs",[3]; ZIKV-infected hNPCs,0.0%
CCC(C(=O)O)c1ccc(N2Cc3ccccc3C2=O)cc1 (stereo not shown) [Indobufen],IC50,[1]; [4],7.74 µM
same,Emax,[1]; [5],85.8%
same,"Cell viability (efficacy, %) Astrocyte",[2]; ZIKV-infected human astrocytes,0.0%
same,"Cell viability (efficacy, %) NPCs",[3]; ZIKV-infected hNPCs,0.0%
